Assay results: ChEMBL document CHEMBL4387706, “Discovery of Novel Spiroindoline Derivatives as Selective Tankyrase Inhibitors” (J Med Chem, 2019)
The source made the active and inactive calls. The rule behind the calls is not given here.

Columns and labels:
[1] = biological target: Prostaglandin G/H synthase 2 (Homo sapiens) (UniProt P35354); assay: Inhibition of human recombinant COX2 expressed in Sf21 cells at 10 uM using arachidonic acid as substrate preincubated for 15 mins followed by substrate addition and measured after 3 mins by ampliflu red dye-based spectrofluorimetric method relative to control
[2] = biological target: Cholecystokinin receptor type A (Homo sapiens) (UniProt P32238); assay: Displacement of [125I]CCK8 from full-length recombinant human CCK1 receptor expressed in human 1321N1 cells at 10 uM measured after 3 hrs by scintillation counting method relative to control; type: cell-based
[3] = biological target: Delta-type opioid receptor (Homo sapiens) (UniProt P41143); assay: Displacement of [3H]naltrindole from full-length recombinant human DOR expressed in HEK293 cells at 10 uM measured after 60 mins by scintillation counting method relative to control; type: cell-based
[4] = biological target: Cannabinoid receptor 1 (Homo sapiens) (UniProt P21554); assay: Displacement of [3H]SR141716A from full-length recombinant human CB1 receptor expressed in human Chem1 cells at 10 uM measured after 60 mins by scintillation counting method relative to control; type: cell-based
[5] = biological target: T1, Tankyrase 1/2 (Homo sapiens) (UniProt Q9H2K2+O95271); assay: Inhibition of TNKS/TNKS2-mediated beta-catenin signaling in human COLO320DM cells assessed as down regulation of TCF7 mRNA expression at 0.033 to 1 uM measured after 48 hrs by RT-PCR analysis; type: cell-based
[6] = biological target: 5-hydroxytryptamine receptor 1B (Homo sapiens) (UniProt P28222); assay: Displacement of [3H]GR125743 from full-length recombinant human 5HT1B receptor expressed in human Chem1 cells at 10 uM measured after 90 mins by scintillation counting method relative to control; type: cell-based
[7] = biological target: Muscarinic acetylcholine receptor M3 (Homo sapiens) (UniProt P20309); assay: Displacement of [3H]N-Methylscopolamine from full-length recombinant human M3 receptor expressed in CHOK1 cells at 10 uM measured after 120 mins by scintillation counting method relative to control; type: cell-based
[8] = biological target: T1, Tankyrase 1/2 (Homo sapiens); assay: Inhibition of TNKS/TNKS2-mediated beta-catenin signaling in human COLO320DM cells assessed as down regulation of AXIN2 mRNA expression at 0.033 to 1 uM measured after 48 hrs by RT-PCR analysis; type: cell-based
[9] = species on record: Rattus norvegicus; assay: Displacement of [3H]batrachotoxinin from Wistar rat brain sodium channel site 2 at 10 uM after 60 mins by scintillation counting analysis relative to control
[10] = biological target: Sodium-dependent noradrenaline transporter (Homo sapiens) (UniProt P23975); assay: Displacement of [125I]RTI-55 from full-length recombinant human NET receptor expressed in MDCK cells at 10 uM measured after 3 hrs by scintillation counting method relative to control; type: cell-based
Chain of Sodium-dependent noradrenaline transporter (Homo sapiens) (P23975 whole entry): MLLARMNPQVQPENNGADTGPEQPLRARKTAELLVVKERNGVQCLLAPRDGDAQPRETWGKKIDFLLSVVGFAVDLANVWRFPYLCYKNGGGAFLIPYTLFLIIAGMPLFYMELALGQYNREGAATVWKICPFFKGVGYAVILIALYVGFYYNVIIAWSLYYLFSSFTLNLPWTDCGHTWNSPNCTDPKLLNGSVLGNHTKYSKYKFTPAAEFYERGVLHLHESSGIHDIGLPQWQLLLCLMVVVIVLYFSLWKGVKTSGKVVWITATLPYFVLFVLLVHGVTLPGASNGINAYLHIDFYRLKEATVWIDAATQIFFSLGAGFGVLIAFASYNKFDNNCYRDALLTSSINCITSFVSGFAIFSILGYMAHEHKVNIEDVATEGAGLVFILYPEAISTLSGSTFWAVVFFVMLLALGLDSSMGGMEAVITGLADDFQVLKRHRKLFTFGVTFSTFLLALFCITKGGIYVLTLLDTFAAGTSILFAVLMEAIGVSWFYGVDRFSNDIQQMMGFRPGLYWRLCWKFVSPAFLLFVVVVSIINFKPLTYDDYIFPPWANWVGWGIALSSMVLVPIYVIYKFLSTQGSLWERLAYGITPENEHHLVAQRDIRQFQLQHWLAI

T1 sequence (O95271 whole entry, looked up): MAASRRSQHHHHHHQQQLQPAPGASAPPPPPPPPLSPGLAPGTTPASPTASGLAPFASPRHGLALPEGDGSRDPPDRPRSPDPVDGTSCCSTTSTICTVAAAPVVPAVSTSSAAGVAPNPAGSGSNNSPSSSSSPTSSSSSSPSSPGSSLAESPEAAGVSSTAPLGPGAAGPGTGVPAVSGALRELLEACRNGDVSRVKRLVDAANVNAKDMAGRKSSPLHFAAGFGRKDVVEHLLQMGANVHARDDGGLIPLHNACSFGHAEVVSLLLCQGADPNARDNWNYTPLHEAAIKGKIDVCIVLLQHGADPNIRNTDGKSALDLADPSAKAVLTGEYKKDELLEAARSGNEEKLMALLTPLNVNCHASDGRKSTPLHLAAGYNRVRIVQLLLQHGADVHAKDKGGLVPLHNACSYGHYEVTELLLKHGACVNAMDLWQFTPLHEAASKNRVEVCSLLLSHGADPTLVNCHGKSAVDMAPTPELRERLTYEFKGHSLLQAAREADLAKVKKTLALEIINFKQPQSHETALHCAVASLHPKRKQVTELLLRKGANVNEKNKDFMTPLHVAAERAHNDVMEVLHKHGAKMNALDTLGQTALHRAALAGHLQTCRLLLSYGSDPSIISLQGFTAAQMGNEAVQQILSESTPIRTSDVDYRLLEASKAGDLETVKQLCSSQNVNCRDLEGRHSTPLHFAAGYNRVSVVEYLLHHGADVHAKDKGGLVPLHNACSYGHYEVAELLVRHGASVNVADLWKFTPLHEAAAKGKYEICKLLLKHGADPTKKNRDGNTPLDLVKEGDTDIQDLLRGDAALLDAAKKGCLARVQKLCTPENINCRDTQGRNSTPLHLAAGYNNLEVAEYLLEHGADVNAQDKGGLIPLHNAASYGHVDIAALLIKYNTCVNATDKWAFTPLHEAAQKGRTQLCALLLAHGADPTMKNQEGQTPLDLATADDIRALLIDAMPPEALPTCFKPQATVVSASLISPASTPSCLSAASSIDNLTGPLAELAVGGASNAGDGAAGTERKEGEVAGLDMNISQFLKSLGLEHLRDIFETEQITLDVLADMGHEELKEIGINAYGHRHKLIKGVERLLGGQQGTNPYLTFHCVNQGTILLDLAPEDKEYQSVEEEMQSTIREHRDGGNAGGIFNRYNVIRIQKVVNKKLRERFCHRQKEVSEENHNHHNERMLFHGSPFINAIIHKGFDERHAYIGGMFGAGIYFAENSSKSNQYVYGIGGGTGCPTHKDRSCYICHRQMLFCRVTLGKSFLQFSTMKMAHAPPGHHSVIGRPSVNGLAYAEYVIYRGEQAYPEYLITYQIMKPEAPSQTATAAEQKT
T1 sequence (Q9H2K2 whole entry, looked up): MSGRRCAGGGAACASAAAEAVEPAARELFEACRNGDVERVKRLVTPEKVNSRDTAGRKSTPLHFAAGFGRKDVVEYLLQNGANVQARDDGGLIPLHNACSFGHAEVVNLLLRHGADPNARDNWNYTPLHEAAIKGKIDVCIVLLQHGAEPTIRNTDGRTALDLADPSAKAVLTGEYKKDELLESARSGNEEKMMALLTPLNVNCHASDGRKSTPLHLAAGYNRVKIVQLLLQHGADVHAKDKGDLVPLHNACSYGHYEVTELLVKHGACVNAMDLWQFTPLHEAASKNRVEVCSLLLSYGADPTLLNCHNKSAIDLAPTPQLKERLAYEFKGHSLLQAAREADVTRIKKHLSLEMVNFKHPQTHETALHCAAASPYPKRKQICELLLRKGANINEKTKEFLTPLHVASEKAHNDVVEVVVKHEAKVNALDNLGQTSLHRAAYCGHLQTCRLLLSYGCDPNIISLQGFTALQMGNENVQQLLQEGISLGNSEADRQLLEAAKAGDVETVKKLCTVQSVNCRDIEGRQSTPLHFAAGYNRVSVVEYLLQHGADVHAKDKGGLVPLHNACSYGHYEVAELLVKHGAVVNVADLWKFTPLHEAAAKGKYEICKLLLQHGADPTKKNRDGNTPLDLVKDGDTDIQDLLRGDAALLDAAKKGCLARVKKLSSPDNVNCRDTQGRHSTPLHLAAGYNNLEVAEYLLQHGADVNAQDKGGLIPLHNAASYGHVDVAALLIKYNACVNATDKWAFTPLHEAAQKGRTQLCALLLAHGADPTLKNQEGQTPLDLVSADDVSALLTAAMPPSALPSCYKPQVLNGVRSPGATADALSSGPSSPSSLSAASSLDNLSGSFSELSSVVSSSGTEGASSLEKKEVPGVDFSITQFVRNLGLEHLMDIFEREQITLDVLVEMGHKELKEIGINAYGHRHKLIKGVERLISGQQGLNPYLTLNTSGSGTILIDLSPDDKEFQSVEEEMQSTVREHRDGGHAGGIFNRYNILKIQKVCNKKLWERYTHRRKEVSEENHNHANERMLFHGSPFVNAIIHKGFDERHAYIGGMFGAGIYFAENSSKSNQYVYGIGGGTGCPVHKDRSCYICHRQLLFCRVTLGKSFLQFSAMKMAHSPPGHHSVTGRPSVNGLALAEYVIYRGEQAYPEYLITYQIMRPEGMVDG
Chain of Prostaglandin G/H synthase 2 (Homo sapiens) (P35354 whole entry): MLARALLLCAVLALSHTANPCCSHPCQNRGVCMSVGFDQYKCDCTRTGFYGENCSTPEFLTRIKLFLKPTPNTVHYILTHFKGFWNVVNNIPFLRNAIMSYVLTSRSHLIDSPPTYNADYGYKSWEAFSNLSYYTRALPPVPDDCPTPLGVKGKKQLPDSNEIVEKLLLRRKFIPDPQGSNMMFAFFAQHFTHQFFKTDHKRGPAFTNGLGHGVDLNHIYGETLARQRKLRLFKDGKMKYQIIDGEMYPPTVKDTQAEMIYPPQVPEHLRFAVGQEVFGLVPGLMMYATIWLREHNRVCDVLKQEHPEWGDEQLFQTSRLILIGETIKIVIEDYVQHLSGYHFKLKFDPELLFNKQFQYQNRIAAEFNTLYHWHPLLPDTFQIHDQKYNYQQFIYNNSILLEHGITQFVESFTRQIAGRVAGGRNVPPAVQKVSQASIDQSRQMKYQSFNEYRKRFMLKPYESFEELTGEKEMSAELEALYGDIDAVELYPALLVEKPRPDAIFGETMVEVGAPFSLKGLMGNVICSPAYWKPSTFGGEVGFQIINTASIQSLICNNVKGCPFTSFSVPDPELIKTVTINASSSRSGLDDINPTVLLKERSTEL
Chain of Delta-type opioid receptor (Homo sapiens) (P41143 whole entry): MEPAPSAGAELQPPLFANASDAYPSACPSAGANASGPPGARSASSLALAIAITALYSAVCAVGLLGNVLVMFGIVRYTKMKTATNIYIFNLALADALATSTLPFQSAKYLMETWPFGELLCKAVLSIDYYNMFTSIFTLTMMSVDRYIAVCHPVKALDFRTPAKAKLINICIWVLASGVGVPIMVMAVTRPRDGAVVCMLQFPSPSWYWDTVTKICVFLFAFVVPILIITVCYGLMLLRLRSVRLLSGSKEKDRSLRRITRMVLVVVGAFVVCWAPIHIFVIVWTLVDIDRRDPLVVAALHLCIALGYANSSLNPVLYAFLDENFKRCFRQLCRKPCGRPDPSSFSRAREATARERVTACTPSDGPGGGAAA
Chain of 5-hydroxytryptamine receptor 1B (Homo sapiens) (P28222 whole entry): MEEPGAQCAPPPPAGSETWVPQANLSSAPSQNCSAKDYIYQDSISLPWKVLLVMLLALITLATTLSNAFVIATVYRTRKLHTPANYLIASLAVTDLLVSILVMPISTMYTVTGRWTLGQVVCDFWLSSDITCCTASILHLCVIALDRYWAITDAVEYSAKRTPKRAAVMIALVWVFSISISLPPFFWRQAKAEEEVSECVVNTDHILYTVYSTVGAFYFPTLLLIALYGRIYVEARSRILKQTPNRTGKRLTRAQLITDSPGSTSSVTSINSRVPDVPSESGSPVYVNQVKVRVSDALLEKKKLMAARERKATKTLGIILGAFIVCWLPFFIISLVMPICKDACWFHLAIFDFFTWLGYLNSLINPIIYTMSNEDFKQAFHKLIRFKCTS
Chain of Cannabinoid receptor 1 (Homo sapiens) (P21554 whole entry): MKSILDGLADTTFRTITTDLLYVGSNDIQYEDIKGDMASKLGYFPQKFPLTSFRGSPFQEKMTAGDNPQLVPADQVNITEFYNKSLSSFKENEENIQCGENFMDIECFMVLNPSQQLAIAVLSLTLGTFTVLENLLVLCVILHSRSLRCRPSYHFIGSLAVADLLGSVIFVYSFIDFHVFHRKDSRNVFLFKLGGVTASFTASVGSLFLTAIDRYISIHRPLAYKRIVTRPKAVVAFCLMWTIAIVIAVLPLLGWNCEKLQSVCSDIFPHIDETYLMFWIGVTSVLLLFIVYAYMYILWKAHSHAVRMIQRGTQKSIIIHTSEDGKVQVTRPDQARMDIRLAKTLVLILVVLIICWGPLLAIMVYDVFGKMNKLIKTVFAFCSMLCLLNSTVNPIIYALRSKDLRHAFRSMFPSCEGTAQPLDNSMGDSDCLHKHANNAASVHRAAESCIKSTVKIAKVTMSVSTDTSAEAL

Question: Which results are given for `O=c1[nH]c(N2CCC3(CC2)CN(CCO)c2cc(F)cc(F)c23)nc2c1CCCC2`?
Answer: inhibition [1]: > 20%; inhibition [2]: > 20%; inhibition [3]: > 20%; inhibition [4]: > 20%; inhibition [5]: Active; inhibition [6]: > 20%; inhibition [7]: > 20%; inhibition [8]: Active; inhibition [9]: > 20%; inhibition [10]: > 20%
